These results are taken from ChEMBL document CHEMBL1129561 (J Med Chem, 1996).

The target in assay [1] is T1, Estrogen receptor (Homo sapiens, UniProt Q92731+P03372).
Description: Binding affinity for human estrogen receptor
Assay [2] has as its target T2, Progesterone receptor (Homo sapiens) (UniProt P06401).
T2 sequence (whole entry): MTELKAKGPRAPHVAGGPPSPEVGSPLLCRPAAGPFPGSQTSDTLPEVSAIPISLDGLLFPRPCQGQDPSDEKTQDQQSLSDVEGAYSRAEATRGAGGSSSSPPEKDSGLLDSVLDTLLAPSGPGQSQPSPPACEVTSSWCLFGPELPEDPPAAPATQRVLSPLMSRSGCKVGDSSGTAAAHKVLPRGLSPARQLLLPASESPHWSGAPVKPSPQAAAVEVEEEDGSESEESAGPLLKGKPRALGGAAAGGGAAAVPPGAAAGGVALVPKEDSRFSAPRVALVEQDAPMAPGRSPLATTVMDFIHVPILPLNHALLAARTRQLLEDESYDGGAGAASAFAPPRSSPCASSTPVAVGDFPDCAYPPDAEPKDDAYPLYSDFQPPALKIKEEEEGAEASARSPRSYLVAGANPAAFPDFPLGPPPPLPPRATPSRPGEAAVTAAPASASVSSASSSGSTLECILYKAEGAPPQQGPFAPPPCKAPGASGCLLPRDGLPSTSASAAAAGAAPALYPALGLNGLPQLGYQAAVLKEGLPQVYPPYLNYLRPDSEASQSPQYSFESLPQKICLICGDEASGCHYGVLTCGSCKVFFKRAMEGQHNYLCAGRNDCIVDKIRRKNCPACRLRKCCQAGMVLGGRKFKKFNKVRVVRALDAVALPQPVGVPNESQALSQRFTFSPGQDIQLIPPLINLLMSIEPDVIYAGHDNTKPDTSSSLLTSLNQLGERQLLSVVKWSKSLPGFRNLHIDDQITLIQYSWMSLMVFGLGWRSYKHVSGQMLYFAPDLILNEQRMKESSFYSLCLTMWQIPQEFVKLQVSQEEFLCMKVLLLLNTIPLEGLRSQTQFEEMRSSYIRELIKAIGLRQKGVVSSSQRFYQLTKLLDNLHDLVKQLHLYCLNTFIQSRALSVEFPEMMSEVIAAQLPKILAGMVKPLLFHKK
Particulars: CV-1.

Assay [3] addresses T3, Glucocorticoid receptor (Homo sapiens, UniProt P04150).
T3 sequence (P04150 whole entry): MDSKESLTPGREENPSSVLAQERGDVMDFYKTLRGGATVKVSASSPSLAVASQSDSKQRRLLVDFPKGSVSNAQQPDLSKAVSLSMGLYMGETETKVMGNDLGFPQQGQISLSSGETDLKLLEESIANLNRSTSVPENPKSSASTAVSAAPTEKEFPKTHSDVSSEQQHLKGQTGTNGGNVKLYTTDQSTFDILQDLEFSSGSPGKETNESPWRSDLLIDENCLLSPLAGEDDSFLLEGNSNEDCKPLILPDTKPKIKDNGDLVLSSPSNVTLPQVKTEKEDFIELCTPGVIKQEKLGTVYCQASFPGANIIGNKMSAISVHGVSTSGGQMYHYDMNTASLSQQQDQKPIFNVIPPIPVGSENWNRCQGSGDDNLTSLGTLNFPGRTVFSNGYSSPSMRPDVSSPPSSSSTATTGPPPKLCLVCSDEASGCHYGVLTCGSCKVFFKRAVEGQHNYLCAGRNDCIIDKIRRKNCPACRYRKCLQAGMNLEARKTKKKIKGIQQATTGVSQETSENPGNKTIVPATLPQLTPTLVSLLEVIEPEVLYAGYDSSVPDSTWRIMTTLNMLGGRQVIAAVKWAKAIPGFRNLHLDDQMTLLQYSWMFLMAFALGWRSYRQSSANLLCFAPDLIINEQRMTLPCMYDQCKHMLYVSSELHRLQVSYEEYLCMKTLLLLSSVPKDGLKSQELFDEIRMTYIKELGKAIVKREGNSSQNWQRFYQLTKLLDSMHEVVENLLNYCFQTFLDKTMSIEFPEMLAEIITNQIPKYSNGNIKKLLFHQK
Description: Binding affinity was determined for human glucocorticoid receptor(hGR).

Assay [4] addresses T1, Estrogen receptor. The source holds these as a separate data set.
Description: Inhibitory activity against human estrogen receptor
Assay [5] concerns the target T4, Mineralocorticoid receptor (Homo sapiens, UniProt P08235).
T4 sequence (P08235 whole entry): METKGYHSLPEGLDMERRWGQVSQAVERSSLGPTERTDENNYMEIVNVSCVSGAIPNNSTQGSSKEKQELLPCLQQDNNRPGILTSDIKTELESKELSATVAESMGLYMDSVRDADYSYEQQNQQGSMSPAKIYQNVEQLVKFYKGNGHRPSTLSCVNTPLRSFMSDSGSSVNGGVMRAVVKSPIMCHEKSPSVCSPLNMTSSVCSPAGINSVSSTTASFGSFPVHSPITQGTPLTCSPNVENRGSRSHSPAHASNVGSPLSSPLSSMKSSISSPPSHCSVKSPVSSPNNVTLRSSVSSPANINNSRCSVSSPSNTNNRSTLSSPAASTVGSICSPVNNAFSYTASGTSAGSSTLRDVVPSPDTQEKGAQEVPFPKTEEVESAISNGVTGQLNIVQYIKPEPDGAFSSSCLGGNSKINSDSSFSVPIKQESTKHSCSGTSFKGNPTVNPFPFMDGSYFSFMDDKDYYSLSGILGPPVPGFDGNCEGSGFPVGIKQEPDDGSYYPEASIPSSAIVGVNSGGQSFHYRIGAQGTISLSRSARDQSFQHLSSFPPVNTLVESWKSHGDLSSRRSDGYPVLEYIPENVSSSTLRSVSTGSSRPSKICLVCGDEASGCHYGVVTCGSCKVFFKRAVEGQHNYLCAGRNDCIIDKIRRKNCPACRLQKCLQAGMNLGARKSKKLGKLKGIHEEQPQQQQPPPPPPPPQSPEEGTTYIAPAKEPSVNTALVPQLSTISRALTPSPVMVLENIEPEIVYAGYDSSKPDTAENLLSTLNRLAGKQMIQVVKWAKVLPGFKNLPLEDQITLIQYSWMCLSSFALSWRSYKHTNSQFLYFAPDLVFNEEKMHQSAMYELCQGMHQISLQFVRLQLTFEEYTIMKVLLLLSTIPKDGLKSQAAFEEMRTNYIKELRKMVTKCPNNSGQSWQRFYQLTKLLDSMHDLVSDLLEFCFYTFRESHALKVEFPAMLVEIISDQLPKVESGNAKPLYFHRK
Description: Inhibitory activity against human mineralocorticoid receptor (hMR)

Broadly, the Ki is the equilibrium dissociation constant of an inhibitor or competing ligand from its target. Read a low Ki as tighter binding. By IC50 is commonly meant the concentration that inhibits the measured activity by half. Lower therefore signals greater potency. Take `C=C1C=C(C)CC(C)(C)C1Cc1ccc([N+](=O)[O-])cc1` (stereo not given): the Ki in assay [1] was > 10 µM; in assay [3], 5.42 µM. For the same compound, in assay [2], the Max inhibition came out at 90%. Also, the concentration for half-maximal inhibition (IC50) in assay [4] and in assay [5] was > 10 µM each time.
